The values below are quoted from earlier work in patent publication US20090306081A1, “Solid Dosage Formulations of Hydralazine Compounds and Nitric Oxide Donor Compounds” (priority 2006, published 2009).

With `O=[N+]([O-])O[C@H]1CO[C@H]2[C@@H]1OC[C@H]2O[N+](=O)[O-]` [Diluted isosorbide dinitrate, 1,4,3,6-dianhydro-D-glucitol-2,5-dinitrate], the “solubility in organic solvents” value (organic solvents such as ethanol, ether and chloroform) is recorded as “freely soluble”. In addition, the solubility in water result (water) was “sparingly soluble”.
